According to patent US11529354B2, “Methods and compositions for the treatment of tuberculosis” (PRESIDENT AND FELLOWS OF HARVARD COLLEGE, priority 2017, dated 2022):
Converted amounts (≈) assume the structure as drawn. Read-outs that look alike come from different tables or passages of the source.

What was measured:
[1] = tested on: clinical Mycobacterium tuberculosis strains (HrRr: 77#, 76#, 80#); assay: microbe, parasite or virus in culture; format: cell-based; conditions: for MIC: Mycobacterium tuberculosis
[2] = tested on: MDR-MTB isolates LZ94 and LZ99; assay: microbe, parasite or virus in culture; format: cell-based, Mycobacterium tuberculosis
[3] = Mycobacterium tuberculosis, read-out: MIC

Compound: Cc1ccc2[nH]c3c(c2c1)CCCC3NCc1ccccc1 (stereo not shown) [CAS 118498-98-9, N-benzyl-6-methyl-2,3,4,9-tetrahydro-1H-carbazol-1-amine]
- concentration increase required to inhibit the drug resistant strains [1]: four-fold
- MIC [1]: 3.2 µg/mL (≈ 11 µM)
- MIC ([1]; strain 76#, HrRr): 25.6 µg/mL (≈ 88.2 µM)
- MIC ([1]; strain 80#, HrRr): 25.6 µg/mL (≈ 88.2 µM)

Compound: CO[C@@H]1[C@@H](OC(=O)c2ccc(C)[nH]2)[C@@H](O)[C@H](Oc2ccc3c(O)c(NC(=O)c4ccc(O)c(CC=C(C)C)c4)c(=O)oc3c2Cl)OC1(C)C [NSC 227186, [(3R,4S,5R,6S)-6-[8-chloro-4-hydroxy-3-[[4-hydroxy-3-(3-methylbut-2-enyl)benzoyl]amino]-2-oxochromen-7-yl]oxy-5-hydroxy-3-methoxy-2,2-dimethyloxan-4-yl]5-methyl-1H-pyrrole-2-carboxylate]
- MIC [2, 3]: 0.625 µg/mL (≈ 0.897 µM)

Compound: Cn1ccc(=Nc2ccc(NC(=O)c3ccc(N=c4ccn(C)c5ccc([N+](=O)[O-])cc45)cc3)cc2)cc1 [NSC 260594, 4-[(1-methyl-6-nitroquinolin-4-ylidene)amino]-N-[4-[(1-methylpyridin-4-ylidene)amino]phenyl]benzamide]
- MIC [2]: 1.25 µg/mL (≈ 2.48 µM)
- MIC ([2]; Mycobacterium tuberculosis, Table 7 and text, […], read-out: MIC): 0.625 µg/mL (≈ 1.24 µM)
- MIC [2, 3]: 0.625 µg/mL (≈ 1.24 µM)
- MIC ([2]; Table 7 and text, […], listed as Formula XI): 1.25 µg/mL (≈ 2.48 µM)

Compound: CO[C@H]1/C=C/O[C@@]2(C)Oc3c(C)c(O)c4c(O)c(c(/C=N/N5CCN(C)CC5)c(O)c4c3C2=O)NC(=O)/C(C)=C\C=C\[C@H](C)[C@H](O)[C@@H](C)[C@@H](O)[C@@H](C)[C@H](OC(C)=O)[C@@H]1C [Rifampicin, reference compound]
- MIC ([2]; Mycobacterium tuberculosis): 2 µg/mL (≈ 2.43 µM)
